In test [1] the target is Fibroblast growth factor receptor 2 (Homo sapiens, UniProt P21802). Description: FGFR2 Activity Inhibition Test: The reaction buffer contains the following components: 5-fold diluted enzymatic buffer/kinase 5x(Cisbio, Cat No. 62EZBFDD)(its main component is 50nM HEPES, pH 7.0), 5mM MgCl2 and 1 mM DTT, a human recombinant FGFR2 catalytic domain protein (amino acid 400-821) which was purchased from Yiqiao Shenzhou Biotech Co. Ltd., a 0.45ng/uL kinase solution diluted by the ….
Chain of Fibroblast growth factor receptor 2 (P21802 whole entry, the tested form may be a part): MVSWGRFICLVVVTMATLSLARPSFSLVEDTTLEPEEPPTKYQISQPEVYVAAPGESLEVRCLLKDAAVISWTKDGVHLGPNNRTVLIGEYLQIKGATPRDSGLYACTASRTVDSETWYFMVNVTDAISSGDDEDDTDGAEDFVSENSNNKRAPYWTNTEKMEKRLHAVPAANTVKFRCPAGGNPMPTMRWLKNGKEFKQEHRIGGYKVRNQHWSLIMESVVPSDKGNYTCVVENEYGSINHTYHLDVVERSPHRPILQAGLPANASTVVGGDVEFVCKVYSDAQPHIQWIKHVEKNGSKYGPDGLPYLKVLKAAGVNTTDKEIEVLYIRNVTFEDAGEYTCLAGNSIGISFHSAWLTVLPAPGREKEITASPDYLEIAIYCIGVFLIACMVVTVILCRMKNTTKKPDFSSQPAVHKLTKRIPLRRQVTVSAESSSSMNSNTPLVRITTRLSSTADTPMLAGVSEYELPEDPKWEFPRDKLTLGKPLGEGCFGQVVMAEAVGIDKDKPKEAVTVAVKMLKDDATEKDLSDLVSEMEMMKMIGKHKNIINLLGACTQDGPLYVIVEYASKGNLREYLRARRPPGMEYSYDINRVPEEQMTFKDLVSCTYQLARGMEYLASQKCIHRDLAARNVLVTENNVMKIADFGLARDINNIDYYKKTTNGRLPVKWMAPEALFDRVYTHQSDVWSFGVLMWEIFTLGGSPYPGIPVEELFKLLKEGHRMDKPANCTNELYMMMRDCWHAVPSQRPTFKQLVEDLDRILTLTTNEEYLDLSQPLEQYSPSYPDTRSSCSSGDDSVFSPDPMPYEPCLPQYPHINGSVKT

Test [2] addresses Fibroblast growth factor receptor 3 (Homo sapiens, UniProt P22607). In words: FGFR3 Activity Inhibition Test: The reaction buffer contains the following components: 5-fold diluted enzymatic buffer/kinase 5x(Cisbio, Cat No. 62EZBFDD)(its main component is 50nM HEPES, pH 7.0), 5mM MgCl2 and 1 mM DTT, a […] which was purchased from Yiqiao Shenzhou Biotech Co. Ltd., a 0.3 ng/uL kinase solution diluted by the ….

Bounds are passed on as bounds.

Chain of Fibroblast growth factor receptor 3 (P22607 whole entry): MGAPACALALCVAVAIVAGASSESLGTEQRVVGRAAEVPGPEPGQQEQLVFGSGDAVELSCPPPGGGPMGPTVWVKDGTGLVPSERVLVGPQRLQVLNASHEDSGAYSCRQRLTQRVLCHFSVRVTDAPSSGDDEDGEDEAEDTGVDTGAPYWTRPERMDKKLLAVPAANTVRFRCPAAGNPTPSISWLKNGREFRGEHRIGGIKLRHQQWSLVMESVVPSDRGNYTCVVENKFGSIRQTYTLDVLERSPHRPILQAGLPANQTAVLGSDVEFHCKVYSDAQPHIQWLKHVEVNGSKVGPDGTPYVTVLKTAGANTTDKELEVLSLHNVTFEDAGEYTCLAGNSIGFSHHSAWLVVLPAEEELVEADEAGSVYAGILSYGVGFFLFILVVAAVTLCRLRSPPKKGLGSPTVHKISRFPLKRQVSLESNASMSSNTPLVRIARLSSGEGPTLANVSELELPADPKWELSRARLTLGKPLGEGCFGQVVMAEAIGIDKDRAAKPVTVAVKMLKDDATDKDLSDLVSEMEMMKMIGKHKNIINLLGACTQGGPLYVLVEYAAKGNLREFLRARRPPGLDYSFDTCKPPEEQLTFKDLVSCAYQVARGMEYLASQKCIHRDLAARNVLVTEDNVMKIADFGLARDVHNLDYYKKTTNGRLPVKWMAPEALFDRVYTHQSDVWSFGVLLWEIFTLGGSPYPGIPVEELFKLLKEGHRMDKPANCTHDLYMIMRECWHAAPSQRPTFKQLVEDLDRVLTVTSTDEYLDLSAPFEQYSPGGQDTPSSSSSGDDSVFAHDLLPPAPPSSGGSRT

In the case of `CC#CC(=O)N1CC[C@H](n2nc(C#Cc3cc(OC)cc(OC)c3)c(C(N)=O)c2N)C1`, the concentration for half-maximal inhibition (IC50) in test [1] and in test [2] was < 0.01 µM in each case.
